Measured values as given in patent US8747811B2, “Perylenequinone derivatives and uses thereof” (Quest Pharmatech, Inc., priority 2005, dated 2014).

Tests used:
[1] = system: EMT-6 cells; test: Light treatment (PDT), clonogenic assay in EMT-6 cells; format: cell-based, mouse; conditions: for cell killing ability: 0-20 μM drug, graded light doses, 635 nm; for cell death after light treatment: EMT-6 cells, clonogenic assay, with light; for cell survival: Five μM drug concentration with 2 J/cm^2 light treatment, 635 nm laser
Method: (§1) EMT-6 cells in log phase growth were plated onto 35 mm tissue culture dishes 24 hours prior to experimentation. Growth media was removed and replaced with media containing compounds (4) or (5) at the above doses—0, 2.5 μM, 5 μM and 20 μM (Initially, the drugs were dissolved in pure DMSO @ a concentration of 2 mM). They were diluted down to the appropriate concentrations in RPMI growth media. The plates were then kept at 37° C. for 3 hours in the dark and then the cells were washed 2 times in PBS and finally had 2 ml of RPMI added to each dish. Then, the dark toxicity samples were kept covered at room temperature for the equivalent time taken for light treatment of the other samples. Light treated samples were subjected to grades doses of light (0, 0.5, 1, 2.5 and 5 J/cm^2) from 635 nm laser with a fluency rate of 150 milli watts. The media was removed and the cells trypsinized and re-plated at 200 cells/60 mm dish in normal RPMI growth media. The cells were allowed to grow for 7 days and then stained with Methylene Blue and the surviving colonies counted.

[2] = UV-visible absorption spectra in DMSO; format: physicochemical
From the text: The absorption spectra of compounds (4) and (5) recorded in DMSO are shown in FIG. 1 along with the parent compound (2). Based on the study of absorption spectra of hypocrellin B (2) (Diwu et al. Sinica Sol. B 18, 1993, 131), the shorter wavelength absorption bands are assigned to the π-π* transition, and the absorption bands at the longer wavelength is the relation to […] charge transfer (ICT) which may take on some active role in the photodynamic activity of the molecule. From FIG. 1, the absorption at the longer wavelengths of compounds (4) and (5) has enhanced, as compared to the parent hypocrellin B (2). The maximum absorption of compounds (4) and (5) is around 600-700 nm in DMSO which helps in tissue penetration, while the parent compound hypocrellin (2) has maximum absorption at 580 nm in DMSO. When an electron donating group like 3-dimethylaminopropylamine is introduced in the quinonoid molecule, its interaction with the adjacent carbonyl group enhances the red shift in the absorption spectra, thereby leading to an extended red shift spectral region (photodynamic window) which is important for PDT.

[3] = system: normal mouse skin; test: PDT effect on normal mouse skin; format: in vivo
From the text: Likewise, the photosensitizer alone without light treatment was also ineffective.

[4] = system: human (ex vivo) skin samples; test: PDT treated human (ex vivo) skin samples, histology
[5] = system: BT549 cells; test: Photodynamic activity, tritiated thymidine uptake in BT549 cells; format: cell-based; conditions: for activity in the absence of light treatment: no light; for cell death after light treatment: tritiated thymidine uptake, with light
From the text: The photodynamic activity of compound 4 has been studied in two cell lines cells by measuring cell death post treatment by tritiated thymidine uptake (in […] cells) and clonogenic assays (in EMT-6 cells).
The photodynamic activity of ACP-compound 5 was studied in two cell lines cells by measuring cell death post treatment by tritiated thymidine uptake (in BT549 cells) and clonogenic assays (in EMT-6 cells).

[6] = system: EMT-6 cells; test: Dark toxicity, clonogenic assay in EMT-6 cells; format: cell-based, mouse; conditions: no light
Method: EMT-6 cells in log phase growth were plated onto 35 mm dishes 24 hours prior to experimentation. Growth media was removed and replaced with media containing compounds (4) and (5) at the doses (0, 2.5 μM, 5 μM and 20 μM). The plates were then kept at 37° C. for 3 hours in the dark and then the cells were washed 2 times in PBS then trypsinized and re-plated at 200 cells/60 mm dish in normal RPMI growth media. The cells were allowed to grow for 7 days and then stained with Methylene Blue and the surviving colonies counted.
as §1, with “Light treated samples were subjected to grades doses of light (0, 0.5, 1, 2.5 and 5 J/cm^2) from 635 nm laser with a fluency rate of 150 milli watts. The media was removed and the cells trypsinized and re-plated at 200 cells/60 mm dish in normal RPMI growth media.” left out

[7] = Phase 1 clinical study, topical application to the back of patients with acne; format: in vivo, human; conditions: 10 patients with acne on the back
From the text: The primary objective of the study was to measure and quantify the fluorescence levels of ACP-compound 4 in sebaceous glands, epidermis and hair follicles at different time points after topical application. The study also monitored the safety of the drug product after topical administration. The study consisted of a group of 10 patients with acne on the back.

[8] = Fluorescence spectra in chloroform; format: physicochemical
From the text: The introduction of the extra cyclic ring in compound (5) have shown a new fluorescent band at longer wavelength (around 725 nm), because of the […] H-atom transfer process. The new florescent band is considered to be related to the ICT between the amino group and the […] carbonyl group.

[9] = system: EMT-6 mouse tumor model; test: PDT in EMT-6 mouse tumor model; format: in vivo; conditions: liposomal formulation (DPPC and cholesterol) combined with light treatment
From the text: Liposomal formulations of compound 5 for systemic delivery of the photosensitizer. The photosensitizer is formulated with a mixture of dipalmitoyl phosphatidylcholine (DPPC) and cholesterol and extruded through membrane of different pore size until the required size of liposomes was achieved.

COc1c(O)c2c(=O)cc(OC)c3c4c(OC)cc(=O)c5c(O)c(NCCCN(C)C)c6c(c(c1C(C(C)=O)C(C)=C6)c23)c54 (stereo not shown) [Compound 4, 2-(N,N-dimethylaminopropyl)-amino-15-acetyl-3,10-dihydroxy-6,7,11-trimethoxy-14-methyl-15-H-cyclohepta(ghi)perylene-4,9-dione]
cell killing ability [1]: dose dependent cell killing ability with increasing light and drug dose
cell death after light treatment [1]: significant cell death
cell survival [1]: 1 cell per 1000 plated
absorption at the longer wavelengths as compared to the parent hypocrellin B (2) [2]: enhanced
tissue damage ([3]; 70 J/cm^2, penetration for 3 to 5 hours): significant epidermal apoptosis
tissue damage ([3]; 70 J/cm^2, penetration time of 1 or 2 hours, 7 days post treatment): mild injury to the epidermal cells
tissue damage ([3]; 100 J/cm^2, 1 hour of penetration): only the epithelium and part of the fatty layer showed damage
tissue damage ([3]; 100 J/cm^2, 2 hours of penetration): Apoptosis of epidermal cells, basal layer and hair follicle
tissue damage ([3]; 100 J/cm^2, 3 hours of penetration): the whole tissue layer, including muscle layer showed significant damage
tissue damage, photosensitizer alone ([3]; without light treatment): ineffective
histological changes after PDT [4]: no histological changes up to two days post treatment but progressive necrotic/apoptotic changes thereafter
activity in the absence of light treatment [5]: No significant activity
cell death after light treatment [5]: significant cell death
activity in the absence of light treatment [6]: No significant activity
adverse events [7]: No adverse events have been observed

COc1c(O)c2c(=O)cc(OC)c3c4c(OC)cc(=O)c5c6c(c7c(c(c1C(C(C)=O)C(C)=C7)c23)c54)NC1CCCCC1N6 (stereo not shown) [Compound 5, (2,3b)-Octahydroquinoxalin-yl-hypocrellin B derivative]
cell killing ability [1]: dose dependent cell killing ability with increasing light and drug dose
cell death after light treatment [1]: significant cell death
cell survival [1]: 1 cell per 1000 plated
absorption at the longer wavelengths as compared to the parent hypocrellin B (2) [2]: enhanced
activity in the absence of light treatment [5]: No significant activity
cell death after light treatment [5]: significant cell death
new fluorescent band at longer wavelength [8]: around 725 nm
activity in the absence of light treatment [6]: No significant activity
tumor response [9]: Complete cure of the implanted tumor

COc1c2c3c4c(c(OC)c(=O)c5c(O)cc(OC)c(c6c(OC)cc(O)c(c1=O)c63)c54)C(C(C)=O)=C(C)C2 [hypocrellin (2), hypocrellin B, reference compound]
maximum absorption [2]: 580 nm
